# Measurements: publication PMC10154249, “Unique progerin C-terminal peptide ameliorates Hutchinson–Gilford progeria syndrome phenotype by rescuing BUBR1” (Nature Aging, 2023)
# Experiments:
# senescent IMR90 cells = assay: SA-β-gal staining of DNA damage-induced senescent IMR90 cells; assay type: cell-based, human; settings: for SA-β-gal positive cells: UPCP 6 μM 5 days
# Protocol: Fibroblasts from patients with HGPS were obtained from The Progeria Research Foundation Cell and Tissue Bank (http://www.progeriaresearch.org). The following fibroblasts were used: HGADFN003, HGADFN167, HGMDFN090 and HGFDFN168. Human dermal fibroblasts (GM00038 and AG09602) were obtained from Coriell Cell Repository (https://catalog.coriell.org). These cells were characterized by DNA fingerprinting and isozyme detection and were tested by a MycoBlue Mycoplasma Detector (Vazyme Biotech) to exclude mycoplasma contamination before the experiments. […] HGADFN003, HGADFN167, HGMDFN090, HGFDFN168, GM00038 and AG09602 were cultured in DMEM medium with 15% (v/v) fetal bovine serum (VivaCell). All cell lines were grown at 37 °C with 5% CO2 and IMR90, CRL-1474, HGADFN003, HGADFN167, HGMDFN090, HGFDFN168, GM00038 and AG09602 were cultured with 5% O2. For bleomycin-induced senescence, IMR90 cells were incubated with the culture medium containing 20 μg ml^–1 Bleomycin (Selleck, catalog no. S1214) for 2 h and analyzed 10 days later, or as otherwise indicated. For doxorubicin-induced senescence, IMR90 cells were treated twice with 100 nM Doxorubicin (Selleck, catalog no. S1208) with a 2 day interval and analyzed 10 days later, or as otherwise indicated. For ionizing radiation (IR)-induced senescence, IMR90 cells were exposed to 10 Gy Gamma rays, and analyzed 10 days later, or as otherwise indicated, the control IMR90 cells were mock irradiated. For etoposide-induced senescence, IMR90 cells incubated with the culture medium containing 10 μM Etoposide (Sigma, catalog no. E1383) for 48 h and analyzed 10 days later, or as otherwise indicated.
# SA-β-gal staining was performed as previously described. Cells were fixed in 0.5% glutaraldehyde for 15 min at room temperature, washed three times with PBS (pH 6.0) containing 1 mM MgCl2 and exposed overnight 37 °C to containing 1 mg ml^–1 5-bromo-4-chloro-3-indolyl-β-D-galactopyranoside (MCE, catalog no. HY-15934), 0.12 mM potassium ferrocyanide (Sigma, catalog no. P3289), 0.12 mM potassium ferricyanide (Sigma, catalog no. P8131) and 1 mM MgCl2 PBS buffer (pH 6.0). Cells were washed three times with H2O and observed under a microscope (OLYMPUS CKX53). SA-β-gal positive cells were quantified by investigators who were blinded to the identity of the analyzed cell.
# [1] = test system: BUBR1 in NIH-3T3-progerin cells; assay: Western blot of BUBR1 in progerin-expressing NIH-3T3 cells; assay type: cell-based
# Protocol: (§1) Western blot was performed as previously described. Cells were lysed in 1× Laemmli sample buffer after washing twice in cold PBS without calcium and magnesium. Protein concentrations were determined using the bicinchoninic acid (BCA) protein assay. Protein lysates were subjected to SDS–PAGE, transferred to 0.45-μm pore size hydrophobic PVDF transfer membrane (Merck Millipore), detected with the appropriate primary antibodies coupled with horseradish peroxidase-conjugated corresponding secondary antibodies, and visualized using enhanced chemiluminescence ECL reagent (GE Healthcare). The Tanon 5500 high-definition low-illumination CCD system (Tanon FLI Capture v.1.02) was used to capture chemiluminescent signals.
# BUBR1–PTBP1 binding = assay: CoIP of PTBP1 and BUBR1 in HEK-293T cells; assay type: cell-based; settings: UPCP 18 μM, 48 h
# Protocol: Detailed descriptions of CoIP were described previously[55],[56]. Cells were harvested and washed three times in cold PBS, then lysed in CoIP buffer (25 mM Tris-HCl (pH 7.5), 150 mM KCl, 5 mM EDTA, and 0.5% NP-40) plus protease inhibitor cocktail tablet (Roche). Incubate on ice and shock lysates on the vortex shaker 15 times for 30 s each. Microcentrifuge in 12,000g for 15 min at 4 °C, collect the supernatant, and incubate with 3 μg primary antibodies with gentle shaking overnight at 4 °C, followed by adding 20–40 μl Pure Proteome Protein A/G Mix Magnetic Beads (Millipore, catalog no. […]02) for 3 h. Wash the beads three times with 1 ml CoIP buffer for 8 min each, resuspend in 50 μl 1× loading buffer, and incubate at 100 °C for 8 min. Throw beads away and analyze by immunoblotting.
# PTBP1 = target: T1, PTBP1 (Homo sapiens, UniProt P26599); assay: Microscale thermophoresis (MST) of UPCP and PTBP1; assay type: binding; settings: Fig. 4l
# T1 construct: made in house
# T1 sequence (P26599 whole entry): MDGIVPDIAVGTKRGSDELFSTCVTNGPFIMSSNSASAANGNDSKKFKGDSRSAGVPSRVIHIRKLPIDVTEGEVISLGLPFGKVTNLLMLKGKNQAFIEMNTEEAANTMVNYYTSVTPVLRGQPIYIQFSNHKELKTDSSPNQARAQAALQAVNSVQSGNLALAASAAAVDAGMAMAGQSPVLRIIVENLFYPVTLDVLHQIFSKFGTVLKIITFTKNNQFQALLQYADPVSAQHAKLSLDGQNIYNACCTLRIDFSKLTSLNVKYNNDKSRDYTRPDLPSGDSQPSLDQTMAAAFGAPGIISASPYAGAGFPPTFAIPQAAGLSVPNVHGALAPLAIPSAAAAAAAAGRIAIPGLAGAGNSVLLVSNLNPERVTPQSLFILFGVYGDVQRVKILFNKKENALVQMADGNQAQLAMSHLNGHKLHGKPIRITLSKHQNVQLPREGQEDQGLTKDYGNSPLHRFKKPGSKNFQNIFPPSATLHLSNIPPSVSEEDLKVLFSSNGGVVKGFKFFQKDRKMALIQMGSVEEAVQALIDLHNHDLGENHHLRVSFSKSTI
# Protocol: Cells were harvested and lysed in buffer A mixed with protease inhibitor cocktail tablet (Roche) after 48 h. […] The beads were washed three times using 1× Tris saline buffer (50 mM Tris-HCl (pH 7.4) and 150 mM NaCl)) for 8 min each. The bound proteins BUBR1 or PTBP1 were eluted with 3×Flag peptide (ApexBio) for 2 h at 4 °C. Finally, BUBR1 or PTBP1 was concentrated and recovered by using the Centrifugal Filters (Amicon Ultra).
# His-UPCP was eluted with Imidazole eluent for 2 h at 4 °C and concentrated and recovered by using centrifugal filters (Amicon Ultra). Flag-BUBR1 or PTBP1 was purified as described in Affinity purification of Flag-tagged protein. The purified protein was diluted with 0.05% Tween-20 in PBS in to an appropriate concentration (His-UPCP: 50 nM, Flag-BUBR1: 25 μM, Flag-PTBP1: 45 μM). Then, His-UPCP was labeled with RED-Tris-NAT according to the manufacturer’s instructions (NanoTemper, MO-L018). Flag-BUBR1 or Flag-PTBP1 was diluted by 16 concentration gradients in turn and mixed with labeled protein (His-UPCP). The capillaries (MST NT115 premium) were loaded and the samples measured on the instrument (NanoTemper Monolith NT.115). Data were analyzed by MO.AffinityAnalysis and curves were drawn using Origin 2019.
# [2] = test system: SAC signal response (p-H3); assay: Western blot of p-H3 (SAC signal response), nocodazole-treated HGADFN003 cells; assay type: cell-based, human; settings: nocodazole 200 ng ml^–1 with UPCP
# Protocol: as §1
substance,measurement,setting,value
"H-YGRKKRRQRRRYNLRSRTVLCGTCGQPADKASASGSGAQSPQNCSIM-OH (cysteines drawn unpaired) [UPCP, unique progerin C-terminal peptide]",SA-β-gal positive cells,"senescent IMR90 cells; BLM (bleomycin 20 μg/mL 2 h), replicate 1",71.6418%
same,SA-β-gal positive cells,"senescent IMR90 cells; BLM (bleomycin 20 μg/mL 2 h), replicate 2",81.25%
same,SA-β-gal positive cells,"senescent IMR90 cells; BLM (bleomycin 20 μg/mL 2 h), replicate 3",74.0741%
same,SA-β-gal positive cells,"senescent IMR90 cells; Dox (doxorubicin 100 nM twice), replicate 1",76.4706%
same,SA-β-gal positive cells,"senescent IMR90 cells; Dox (doxorubicin 100 nM twice), replicate 2",84.6154%
same,SA-β-gal positive cells,"senescent IMR90 cells; Dox (doxorubicin 100 nM twice), replicate 3",66.1539%
same,SA-β-gal positive cells,"senescent IMR90 cells; Eto (etoposide 10 μM 48 h), replicate 1",80.4348%
same,SA-β-gal positive cells,"senescent IMR90 cells; Eto (etoposide 10 μM 48 h), replicate 2",71.7949%
same,SA-β-gal positive cells,"senescent IMR90 cells; Eto (etoposide 10 μM 48 h), replicate 3",70.9091%
same,rescue of phenotype of DNA damage-induced senescent cells,"senescent IMR90 cells; IMR90, 10 days after bleomycin, doxorubicin, ionizing radiation or etoposide",failed to rescue the progeria phenotype of these cells
same,SA-β-gal positive cells,"senescent IMR90 cells; IR (10 Gy), replicate 1",77.4193%
same,SA-β-gal positive cells,"senescent IMR90 cells; IR (10 Gy), replicate 2",75.5814%
same,SA-β-gal positive cells,"senescent IMR90 cells; IR (10 Gy), replicate 3",70.4545%
same,BUBR1 abundance,[1],upregulated BUBR1
same,binding of BUBR1 to PTBP1,BUBR1–PTBP1 binding,did not block the binding of BUBR1 to other proteins such as PTBP1
same,"Dose Response Curve, Response","PTBP1; Dose 5.625e-6, Err-Value 0.11619",926.063
same,"Dose Response Curve, Response","PTBP1; Dose 1.125e-5, Err-Value 0.242742",928.882
same,"Dose Response Curve, Response","PTBP1; Dose 2.25e-5, Err-Value 0.492149",930.614
same,"Dose Response Curve, Response","PTBP1; Dose 1.10E-08, Err-Value 0.170403",918.746
same,"Dose Response Curve, Response","PTBP1; Dose 1.37E-09, Err-Value 0.46814",919.158
same,"Dose Response Curve, Response","PTBP1; Dose 1.41E-06, Err-Value 0.643872",921.756
same,"Dose Response Curve, Response","PTBP1; Dose 1.76E-07, Err-Value 0.140462",919.37
same,"Dose Response Curve, Response","PTBP1; Dose 2.20E-08, Err-Value 0.425445",918.898
same,"Dose Response Curve, Response","PTBP1; Dose 2.75E-09, Err-Value 0.242938",919.038
same,"Dose Response Curve, Response","PTBP1; Dose 2.81E-06, Err-Value 0.290637",923.469
same,"Dose Response Curve, Response","PTBP1; Dose 3.52E-07, Err-Value 0.0904303",919.901
same,"Dose Response Curve, Response","PTBP1; Dose 4.39E-08, Err-Value 0.556308",918.749
same,"Dose Response Curve, Response","PTBP1; Dose 5.49E-09, Err-Value 0.120596",918.787
same,"Dose Response Curve, Response","PTBP1; Dose 6.87E-10, Err-Value 0.420573",919.333
same,"Dose Response Curve, Response","PTBP1; Dose 7.03E-07, Err-Value 0.21429",920.338
same,"Dose Response Curve, Response","PTBP1; Dose 8.79E-08, Err-Value 0.322491",918.54
same,SAC signal response (p-H3),[2],repaired the SAC signal response
